Data reported in patent US11149046B2, “Antibacterial sideromycins” (Hsiri Therapeutics, Inc., priority 2014, dated 2021).
Values after ≈ are worked out from the molar mass of the structure shown. “Also recorded” adds a separate entry of the source. Like-named read-outs stand apart in the source and are kept apart here. Values belong to the compound of their own block, whether it stands above or below them.

Experiments:
Cytotoxicity assay [1] = details: human, MCF7 cells
Cytotoxicity assay [2] = details: human, HeLa cells
P. aeruginosa KW799/wt = test: MIC determination; format: cell-based, Pseudomonas aeruginosa
Excerpt: (§1) Table 3 that was included in the first Example 4 section provides antibacterial data for the first synthetic sideromycins we prepared and studied. The second Example 4 section elaborated and expanded on that data with inclusion of representative antibacterial data in the text and associated pictures of Petri dish assays. MIC (minimum inhibition concentration) is given in μM and AD (agar diffusion zones of inhibition are given in mm from Kirby-Bauer Petri dish growth inhibition studies).

[3] = tested on: strains of Pseudomonas and Acinetobacter; test: Antibacterial activity, general statements; format: cell-based; details: general statements of the text
Experimental: Antibiotic activity was determined using agar diffusion assays against representative Gram-negative bacteria, including Pseudomonas aeruginosa (Pa6), and several multidrug resistant forms of Acinetobacter baumannii. Representative results are shown in Table 1 and a corresponding picture of an actual petri dish showing the agar diffusion results (FIG. 4). […].

Pa6 = test: MIC determination; format: cell-based, Pseudomonas aeruginosa; details: read-out: MIC
Excerpt: (§2) MIC (minimum inhibition concentration) is given in μM and AD (agar diffusion zones of inhibition are given in mm from Kirby-Bauer Petri dish growth inhibition studies).

Stability assay in media = format: physicochemical
Excerpt: The initial antibacterial assay shown in Table 6 indicated activity against select strains of Pseudomonas and/or Acinetobacter. However, the reduction of activity at higher concentrations but excellent activity at lower, drug like concentrations, raised the concern that either the conjugates were unstable or some of the siderophore component remained in the final conjugate and at higher concentrations, the siderophore growth promotion would compete for the sideromycin growth inhibition. The possible instability was considered to be due to the presence of the short succinate linker that upon bacterial uptake and iron removal would promote intramolecular release of the antibiotic component and regeneration of the siderophore with subsequent growth promotion effects. […] Meanwhile, the assays were repeated with intentional addition (titration with) of the siderophore component itself to the sideromycins. […] Therefore, each of these mixed ligand sideromycins has been resynthesized and rigorously purified. […] MIC antibacterial assays are being repeated with the newly prepared samples. […] Thus, the mixed ligand system has the potential to be a very potent and selective anti-Acinetobacter sideromycin.

Cytotoxicity assay [4] = details: human, PC3 cells
[5] = tested on: Pa-Da-1304 CF patient isolate; test: MIC determination; format: cell-based, Pseudomonas aeruginosa
Excerpt: as §2
We obtained a clinical isolate of Pseudomonas from a cystic fibrosis patient.

[6] = tested on: Pseudomonas aeruginosa 01 (Pa01); test: MIC determination; format: cell-based
Excerpt: as §1

Pa4 = test: MIC determination; format: cell-based, Pseudomonas aeruginosa
Excerpt: as §1

A. baumannii ATCC 17961 = test: MIC determination; format: cell-based, Acinetobacter baumannii; details: read-out: MIC
Excerpt: as §1

A. baumannii BAA1797 = test: Antibacterial activity of MG-1-189 and sulbactam; details: single agent
A. baumannii BAA1710 = test: Antibacterial activity of MG-1-189 and sulbactam; details: single agent
[7] = tested on: Pseudomonas aeruginosa KW799/61; format: cell-based; details: outer membrane permeable mutant; FIG. 9 center panel
Excerpt: as §2

Acinetobacter = test: Murine Survival Experiment with Acinetobacter; format: in vivo; details: 50 mg/kg IV at +30 min and +4 hr
Experimental: In vivo data for murine survival with Acinetobacter is shown in Table 9 below and graphically in FIG. 14. In the experiments, 10^8 Acinetobacter was administered IP at time 0 on Day 1, and antibiotic was administered twice IV at +30 min and +4 hr

[8] = tested on: Acinetobacter baumannii ATCC 17961; test: Agar diffusion (Kirby-Bauer) assay, with and without hydrogel; format: cell-based; details: Acinetobacter; FIG. 8, 9, 10
Excerpt: as §1
We investigated whether the sideromycin absorbed in the gel be able to diffuse out of the gel and into the agar to effect antibacterial growth. As a control, the sideromycin alone, without gel, was added in a separate 9 mm well, as usual.
The second question was whether the sideromycin continue to be released and be able to effect bacterial growth inhibition over extended periods. Thus, additional identical agar plates were prepared and stored at 4° C. for 24, 48 and 72 hours to allow diffusion of the sideromycin (control and gel forms) into the agar before allowing the bacteria to grow in an incubator. Then after each time period, the Petri dishes were incubated at 37° C. for 20 hours to promote bacteria growth in the agar. […] The study has been extended to as long as 168 hours (one week) with retention of antibiotic effectiveness.

A. baumannii BAA1800 = test: Antibacterial activity of MG-1-189 and sulbactam; details: single agent
[9] = tested on: P. aeruginosa KW799/61 (permeability mutant); test: microbe, parasite or virus in culture; format: cell-based, Pseudomonas aeruginosa; details: Table 5
Excerpt: as §2

A. baumannii BAA1793 = test: Antibacterial activity of MG-1-189 and sulbactam; details: single agent
[10] = tested on: Pseudomonas aeruginosa KW799/wt; test: Agar diffusion (Kirby-Bauer) assay; format: cell-based; details: wild type Pseudomonas; FIG. 8, 9, 12
Excerpt: as §1

- MIC (P. aeruginosa KW799/wt): 0.14 to 0.2 µM
- MIC (P. aeruginosa KW799/wt; Pseudomonas aeruginosa, KW799/WT, Table 6, read-out: MIC): 0.14 to 0.2 µM (≈ 0.176 to 0.252 µg/mL)
- MIC (P. aeruginosa KW799/wt; listed as MG-1-239, read-out: MIC): 0.05 µM (≈ 0.063 µg/mL)
- MIC (Pa6; Pseudomonas aeruginosa, Table 6): > 50 µM
- stability in media (in words) (Stability assay in media; incubated in media under conditions that mimic the antibacterial assays, LC/MS): expected loss of acetyl groups
- MIC ([5]; Pseudomonas aeruginosa, clinical isolate from a cystic fibrosis patient): > 50 µM
- MIC [6]: 0.39 to 0.55 µM
- MIC ([6]; Pseudomonas aeruginosa, Table 6, read-out: MIC): 0.39 to 0.55 µM (≈ 0.491 to 0.693 µg/mL)
- MIC ([6]; Pseudomonas aeruginosa, read-out: MIC): 0.2 µM (≈ 0.252 µg/mL)
SMILES: CC(=O)Oc1cccc(C(=O)NCCCCN(CCCNC(=O)c2cccc(OC(C)=O)c2OC(C)=O)C(=O)CCC(=O)NCCCCCN(OC(C)=O)C(=O)CCC(=O)N[C@@H](C(=O)N[C@@H]2C(=O)N3C2SC(C)(C)[C@@H]3C(=O)O)c2ccccc2)c1OC(C)=O (some centres unmarked) [MG-1-121]
- IC50 (Cytotoxicity assay [1]): > 20 µM
- IC50 (Cytotoxicity assay [2]): > 20 µM
- antibacterial activity (in words) [3]: broad spectrum activity
- IC50 (Cytotoxicity assay [4]): > 20 µM

- IC50 (PC3): 15 µM
- MIC (Pa4): > 50 µM
- MIC (P. aeruginosa KW799/wt; read-out: MIC): 0.2 µM (≈ 0.213 µg/mL)
- MIC (Pa6; beta-lactamase producer strain): > 50 µM
- stability in media (in words) (Stability assay in media): showed the desired stability
- MIC (A. baumannii ATCC 17961): 0.025 µM (≈ 0.0266 µg/mL)
- MIC ([5]; clinical isolate from a cystic fibrosis patient): > 50 µM
- IC50 (MCF7): 11 µM
- IC50 (Hela): > 20 µM
SMILES: O=C(CCC(=O)N(CCCCNC(=O)c1cccc(O)c1O)CCCNC(=O)c1cccc(O)c1O)NCCCCCN(O)C(=O)CCCC(=O)NC(C(=O)NC1C(=O)N2C(C(=O)O)=C(Cl)CCC12)c1ccccc1 (centres unmarked) [MG-1-227]

SMILES: N[C@@H](C(=O)N[C@@H]1C(=O)N2C(C(=O)O)=C(Cl)CC[C@H]12)c1ccccc1 [loracarbef, reference compound]
- MIC (Pa4; Table 5): >200 µM
- MIC (P. aeruginosa KW799/wt; Table 5, read-out: MIC): >200 µM
- MIC (P. aeruginosa KW799/wt; Table 7, read-out: MIC): >200 µM
- Antibacterial activity (MIC) (A. baumannii BAA1797): >25 µM
- Antibacterial activity (MIC) (A. baumannii BAA1710): >25 µM
- MIC (Pa6; Table 5): >200 µM
- zones of inhibition (in words) [7]: very small zone of inhibition
- murine survival (surviving mice) (Acinetobacter; D 1, 10^8 Acinetobacter IP): 6
- murine survival (surviving mice) (Acinetobacter; D 2): 2
- murine survival (surviving mice) (Acinetobacter; D 3): 2
- murine survival (surviving mice) (Acinetobacter; D 4): 2
- murine survival (surviving mice) (Acinetobacter; D 5): 2
- murine survival (surviving mice) (Acinetobacter; D 6): 2
- murine survival (surviving mice) (Acinetobacter; D 7): 2
- zones of inhibition (in words) [8]: inactive; also recorded: no inhibition
- MIC (A. baumannii ATCC 17961; Table 5, head prints A. baumannii only): >200 µM
- MIC (A. baumannii ATCC 17961; Table 7): >200 µM
- Antibacterial activity (MIC) (A. baumannii BAA1800): >25 µM
- MIC [9]: 50 µM (≈ 17.5 µg/mL)
- MIC ([5]; Table 5): >200 µM
- susceptibility of the clinical isolate (in words) ([5]; preliminary tests): resistant
- Antibacterial activity (MIC) (A. baumannii BAA1793): >25 µM
- MIC ([6]; Table 5, read-out: MIC): >200 µM
- MIC ([6]; Table 7, read-out: MIC): >200 µM
- zones of inhibition (in words) [10]: inactive
